Patent US8569344B2, “N-piperidinyl acetamide derivatives as calcium channel blockers” (Zalicus Pharmaceuticals Ltd., priority 2008, dated 2013)

What was measured:
[1] = target: T1, human α1G T-type channels (Homo sapiens, UniProt O43497); test: T-type calcium channel block, whole cell patch clamp in HEK cells (α1G); format: cell-based; details: HEK cells, patch clamp, mainly non-inactivated protocol; values above 10 μM shown as 10 μM, below 0.30 μM shown as 0.30 μM; read-out: T-type Calcium Channel Block α1G IC50
T1 construct: expressed in transfected cells; host or cells: HEK 293

[2] = target: T2, human α1H T-type channels (Homo sapiens, UniProt O95180); test: T-type calcium channel block, whole cell patch clamp in HEK cells (α1H); format: cell-based; details: HEK cells, patch clamp, mainly non-inactivated protocol; values above 10 μM shown as 10 μM; read-out: T-type Calcium Channel Block α1H IC50
T2 construct: expressed in transfected cells; host or cells: HEK 293
T2 sequence (O95180 whole entry): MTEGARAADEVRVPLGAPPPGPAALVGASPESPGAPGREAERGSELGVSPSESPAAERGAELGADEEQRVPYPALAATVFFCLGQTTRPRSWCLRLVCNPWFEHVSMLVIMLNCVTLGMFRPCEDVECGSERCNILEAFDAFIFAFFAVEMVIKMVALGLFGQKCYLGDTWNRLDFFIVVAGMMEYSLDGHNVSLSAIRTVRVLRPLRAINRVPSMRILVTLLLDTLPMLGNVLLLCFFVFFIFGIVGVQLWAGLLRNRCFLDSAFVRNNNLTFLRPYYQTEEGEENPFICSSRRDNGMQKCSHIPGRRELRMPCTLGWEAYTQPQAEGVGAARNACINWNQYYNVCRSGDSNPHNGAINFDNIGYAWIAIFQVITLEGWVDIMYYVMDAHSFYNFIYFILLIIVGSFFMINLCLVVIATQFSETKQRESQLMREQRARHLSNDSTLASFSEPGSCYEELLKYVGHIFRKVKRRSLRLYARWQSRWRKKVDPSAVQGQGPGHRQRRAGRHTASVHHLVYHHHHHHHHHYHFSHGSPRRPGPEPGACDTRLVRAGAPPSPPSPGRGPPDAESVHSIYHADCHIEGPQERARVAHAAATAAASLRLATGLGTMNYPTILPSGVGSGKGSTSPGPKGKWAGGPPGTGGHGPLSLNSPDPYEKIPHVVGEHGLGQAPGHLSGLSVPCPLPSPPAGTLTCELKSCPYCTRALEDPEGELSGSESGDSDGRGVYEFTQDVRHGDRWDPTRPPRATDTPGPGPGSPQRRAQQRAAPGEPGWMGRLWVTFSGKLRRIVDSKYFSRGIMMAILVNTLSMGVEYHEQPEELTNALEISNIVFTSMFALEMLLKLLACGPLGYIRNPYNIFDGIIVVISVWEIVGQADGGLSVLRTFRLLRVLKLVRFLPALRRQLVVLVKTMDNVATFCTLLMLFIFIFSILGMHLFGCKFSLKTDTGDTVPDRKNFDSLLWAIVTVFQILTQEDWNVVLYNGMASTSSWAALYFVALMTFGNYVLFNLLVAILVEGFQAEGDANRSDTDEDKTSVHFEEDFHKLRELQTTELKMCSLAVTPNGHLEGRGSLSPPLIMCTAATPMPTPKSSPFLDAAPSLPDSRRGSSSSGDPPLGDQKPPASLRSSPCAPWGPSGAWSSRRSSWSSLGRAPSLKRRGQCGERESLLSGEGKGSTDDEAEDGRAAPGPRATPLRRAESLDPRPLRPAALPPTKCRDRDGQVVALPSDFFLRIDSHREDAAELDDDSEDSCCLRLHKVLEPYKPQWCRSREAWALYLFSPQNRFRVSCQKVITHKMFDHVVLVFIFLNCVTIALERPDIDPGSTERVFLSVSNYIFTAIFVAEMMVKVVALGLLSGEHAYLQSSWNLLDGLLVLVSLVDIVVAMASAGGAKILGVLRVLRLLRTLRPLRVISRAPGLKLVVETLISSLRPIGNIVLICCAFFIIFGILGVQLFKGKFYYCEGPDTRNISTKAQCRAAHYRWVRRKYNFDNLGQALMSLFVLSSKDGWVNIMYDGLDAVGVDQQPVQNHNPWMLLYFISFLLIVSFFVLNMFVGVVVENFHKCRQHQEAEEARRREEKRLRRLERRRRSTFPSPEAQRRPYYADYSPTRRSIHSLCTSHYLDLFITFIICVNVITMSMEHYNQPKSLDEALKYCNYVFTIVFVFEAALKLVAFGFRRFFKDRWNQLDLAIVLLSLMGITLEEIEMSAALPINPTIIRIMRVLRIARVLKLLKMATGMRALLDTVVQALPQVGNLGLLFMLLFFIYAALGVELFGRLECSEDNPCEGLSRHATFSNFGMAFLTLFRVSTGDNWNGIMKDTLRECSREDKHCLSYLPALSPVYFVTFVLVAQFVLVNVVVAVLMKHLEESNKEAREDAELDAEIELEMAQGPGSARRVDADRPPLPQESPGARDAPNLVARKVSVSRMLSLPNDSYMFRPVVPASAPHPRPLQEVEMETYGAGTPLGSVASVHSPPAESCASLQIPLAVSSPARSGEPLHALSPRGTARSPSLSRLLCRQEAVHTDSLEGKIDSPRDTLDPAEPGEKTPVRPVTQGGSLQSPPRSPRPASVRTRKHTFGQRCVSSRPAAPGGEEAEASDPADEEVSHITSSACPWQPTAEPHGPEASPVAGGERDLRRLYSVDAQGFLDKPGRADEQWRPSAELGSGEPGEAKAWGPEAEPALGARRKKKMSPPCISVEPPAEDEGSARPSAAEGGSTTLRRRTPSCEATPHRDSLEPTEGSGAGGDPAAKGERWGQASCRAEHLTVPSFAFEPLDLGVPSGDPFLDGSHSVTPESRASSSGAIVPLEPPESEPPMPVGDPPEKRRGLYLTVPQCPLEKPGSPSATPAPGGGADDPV

hERG K+ channel = hERG K+ channel (Homo sapiens, UniProt Q12809); test: hERG K+ Channel Block; format: cell-based; details: human
Chain of hERG K+ channel (Q12809 whole entry): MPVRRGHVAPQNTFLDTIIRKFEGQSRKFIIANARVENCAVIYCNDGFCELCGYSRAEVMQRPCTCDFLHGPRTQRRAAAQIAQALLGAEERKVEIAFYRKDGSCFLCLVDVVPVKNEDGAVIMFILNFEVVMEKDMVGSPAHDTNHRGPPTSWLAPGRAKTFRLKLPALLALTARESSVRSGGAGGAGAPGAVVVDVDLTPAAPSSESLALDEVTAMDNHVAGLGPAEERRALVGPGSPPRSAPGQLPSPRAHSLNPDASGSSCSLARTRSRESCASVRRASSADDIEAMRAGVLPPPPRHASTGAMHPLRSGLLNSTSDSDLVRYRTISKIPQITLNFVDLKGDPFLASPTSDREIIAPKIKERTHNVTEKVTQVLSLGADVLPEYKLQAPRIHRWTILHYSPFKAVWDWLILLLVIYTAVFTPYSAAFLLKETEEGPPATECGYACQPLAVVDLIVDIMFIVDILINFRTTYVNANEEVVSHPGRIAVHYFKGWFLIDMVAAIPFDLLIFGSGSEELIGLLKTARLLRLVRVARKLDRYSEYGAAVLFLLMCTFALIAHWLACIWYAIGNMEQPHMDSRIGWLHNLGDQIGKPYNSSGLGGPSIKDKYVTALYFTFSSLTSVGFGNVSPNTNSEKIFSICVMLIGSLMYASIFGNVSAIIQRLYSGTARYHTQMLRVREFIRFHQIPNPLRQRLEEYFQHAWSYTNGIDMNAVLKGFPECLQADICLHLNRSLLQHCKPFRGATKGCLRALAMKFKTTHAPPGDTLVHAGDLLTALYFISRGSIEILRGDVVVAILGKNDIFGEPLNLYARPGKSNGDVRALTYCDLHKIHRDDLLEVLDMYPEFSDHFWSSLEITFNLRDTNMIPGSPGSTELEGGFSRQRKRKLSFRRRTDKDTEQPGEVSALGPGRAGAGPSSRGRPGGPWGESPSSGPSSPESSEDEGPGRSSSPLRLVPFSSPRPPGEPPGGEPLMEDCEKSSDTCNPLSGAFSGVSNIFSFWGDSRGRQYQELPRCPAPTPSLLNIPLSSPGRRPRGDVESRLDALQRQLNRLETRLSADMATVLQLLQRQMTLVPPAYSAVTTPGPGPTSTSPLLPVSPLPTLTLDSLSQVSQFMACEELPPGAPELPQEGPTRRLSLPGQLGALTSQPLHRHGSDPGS

[3] = test system: absence seizures in GAERS rats; test: GAERS (Genetic Absence Epilepsy Rats from Strasbourg) epilepsy model, EEG spike and wave discharges; format: in vivo, rat; details: for Percent Recording Time in Seizure Activity, Baseline: 60 minutes pre-injection EEG recording; for Percent Recording Time in Seizure Activity, Post-injection / percentage of time in seizure activity compared to both baseline and vehicle: IP 30 mg/kg; for Percent Recording Time in Seizure Activity, Post-injection: 120 minutes post-injection EEG recording starting 15 minutes post-drug
Description: The GAERS (Genetic Absence Epilepsy Rats from Strasbourg) is noted for its long and frequently recurring absence seizure episodes. […] Eight female GAERS rats, bred in the Ludwig Institute for Cancer Research, were used for this study. Rats weighed between 180 and 250 g and aged between 18 and 26 weeks at the start of the experiment.
Electrodes were made in our laboratory by soldering together gold-plated sockets (220-S02 Ginder Scientific, VA, Canada), stainless steel teflon coated wire (SDR clinical technology, NSW, Australia) and a small stainless steel screw (1.4×3 mm, Mr. Specks, Australia). Animals were anaethetised with inhalation of Isoflurane in equal parts of medical air and oxygen (5% induction, 2.5-1.5% maintenance) or alternatively by intraperitoneal injection with xylazine (10 mg/kg) and ketamine (75 mg/kg). The animals were fixated in a stereotaxic frame by means of ear bars. A midline incision on the scalp was made, skin and connective tissue was scraped and pushed laterally to expose underlying skull. 6 holes were drilled bilaterally, 2 in the frontal bone and 4 in the parietal bone, approximately 2 mm anterior to bregma, and 4 and 10 mm posterior to bregma. 6 electrodes were implanted in the holes, and gold-plated sockets were clipped into 9-pin ABS plug (GS09PLG-220, Ginder Scientific, Canada). 2 two side-anchoring screws were placed laterally into skull to improve strength of cap fixation, then caps were held in place with dental cement.
Post-operatively, animals were given the analgesic Rimadyl (4 mg/kg), placed in their cages on a heat mat, and observed until recovery. Rats were caged separately throughout the study, weighed and health-checked daily, and were allowed 7 days to recover prior to commencement of the experimental procedures. Rats were allowed free access to rodent chow (brand, WA stock feeders) and water under 12:12 light dark conditions in the Biological Research Facility of the Department of Medicine (RMH).
Prior to first drug treatment, rats were tested for absence-type seizures, which are accompanied by generalised spike and wave discharges (SWD) on an EEG recording. Testing, and all further experiments were performed in a quiet, well lit room with rats in their home cages. Rats were connected via 6-channel wire cables, which were cut and soldered to 6 gold-plated pins inserted into a 9 pin socket. Cables were connected to a computer running Compumedics™ EEG acquisition software (Melbourne, Australia). […] On week 1, day 1 after the acclimation period following surgical implantation of subdural electrodes, 4 animals (#1-4) were habituated with the cable connected for 15 minutes, then had their SWDs recorded for 60 minutes as baseline. Immediately following baseline, rats were given one of the test, reference or control articles according to the treatment schedule, and target period was recorded from 15 after injection for 120 minutes. Animals were monitored throughout the experiment, and were kept quietly wakeful during baseline and target periods
The seizure expression for the 60 minutes pre-injection and 120 minutes post-injection EEG recording (starting 15 minutes post-drug administration) was quantified by marking the start and finish of the burst of SWDs. This was done with the assistance of SWCFinder® software which has been custom designed to quantitate GAERS seizures, and researchers were blinded to the nature of the drug administered, whereby the analysis was performed blinded. Standard criteria for GAERS seizures is an SWD burst of amplitude of more than three times baseline, a frequency of 7 to 12 Hz, and a duration of longer than 0.5 s. From this, the total percent time spent in seizure over the 120 minutes post-injection EEG recording was determined (percentage time in seizure) as the primary outcome variable.

[4] = test system: spinal nerve ligation model of neuropathic pain; details: rats; Dogrul et al., Pain (2003); cited from earlier work

## CC(C)(C)NC(=O)CN1CCC(CNC(=O)c2cccc(Cl)c2)CC1 [Compound 364, N-((1-(2-(tert-buylamino)-2-oxoethyl)piperidin-4-yl)methyl)-3-chlorobenzamide]
[1]
  IC50: < 300 nM
[2]
  IC50: 230 nM
hERG K+ channel
  IC50: ≥ 8300 nM
[3]
  Percent Recording Time in Seizure Activity, Baseline: 12.12 ± 1.82%
  Percent Recording Time in Seizure Activity, Post-injection: 0.45 ± 0.20%

## CC(C)(C)NC(=O)CN1CCC(CNC(=O)c2cc(F)cc(F)c2)CC1 [Compound 365, N-((1-(2-(tert-butylamino)-2-oxoethyl)piperidin-4-yl)methyl)-3,5-difluorobenzamide]
[1]
  IC50: 800 nM
[2]
  IC50: 560 nM
[3]
  percentage of time in seizure activity compared to both baseline and vehicle: significant decrease

## CC(C)(C)NC(=O)CN1CCC(CNC(=O)c2cc(F)cc(Cl)c2)CC1 [Compound 367, N-((1-(2-(tert-butylamino)-2-oxoethyl)piperidin-4-yl)methyl)-3-chloro-5-fluorobenzamide]
[1]
  IC50: < 300 nM
[2]
  IC50: 50 nM
hERG K+ channel
  IC50: ≥ 8300 nM
[3]
  Percent Recording Time in Seizure Activity, Baseline: 9.99 ± 2.07%
  Percent Recording Time in Seizure Activity, Post-injection: 0.87 ± 0.44%

## COc1cc(OC)cc(C(=O)NCC2CCN(CC(=O)NC(C)(C)C)CC2)c1 [Compound 368, N-((1-(2-(tert-butylamino)-2-oxoethyl)piperidin-4-yl)methyl)-3,5-dimethoxybenzamide]
[1]
  IC50: < 300 nM
[2]
  IC50: 170 nM
hERG K+ channel
  IC50: ≥ 8300 nM
[3]
  percentage of time in seizure activity compared to both baseline and vehicle: significant decrease

## CCC1(C)CC(=O)NC1=O (stereo not shown) [ethosuximide]
[4]
  anti-hyperalgesic activity in the spinal nerve ligation model of neuropathic pain: anti-hyperalgesic activity

## COCC(=O)O[C@]1(CCN(C)CCCc2nc3ccccc3[nH]2)CCc2cc(F)ccc2[C@@H]1C(C)C [mibefradil]
[4]
  anti-hyperalgesic activity in the spinal nerve ligation model of neuropathic pain: anti-hyperalgesic activity
